Laboratory results: the NIST ThermoML archive (doi:10.1016/j.fluid.2007.01.038)
± gives the expanded uncertainty stated by the source.

Assays:
[1] = refractive index (Na D-line) (dimensionless); settings: 298.15 K; 101.33 kPa; Liquid; Standard Abbe refractometry
[2] = Liquid; for mass density: 298.15 K, 101.33 kPa; for Normal boiling temperature: Ebulliometric method (Recirculating still)

With `CCCCOC(C)(C)C` [butane, 1-(1,1-dimethylethoxy)-] the refractive index [1] was 1.3917 ± 0.00072, the mass density [2] was 757.57 ± 0.26 kg/m3 and the Normal boiling temperature [2] was 122.50 ± 0.1 °C.
Work on `CCO` [ethanol] yielded a refractive index [1] of 1.3592 ± 0.00073, a mass density [2] of 785.22 ± 0.5 kg/m3 and a Normal boiling temperature [2] of 78.29 ± 0.1 °C.
Compound `CO` [methanol] has a refractive index [1] of 1.3264 ± 0.0007, a mass density [2] of 786.63 ± 0.5 kg/m3 and a Normal boiling temperature [2] of 64.4 ± 0.1 °C.
